Values after ≈ are worked out from the molar mass of the structure shown. Where two headings read alike, the source gives them in different places.

The test system of assay [1] is Mycobacterium tuberculosis 331/88 (H37Rv). The assay can be described thus: Antimycobacterial MIC micromethod, Šula's medium. The format is cell-based. Conditions: read-out: MIC Mtb. 331/88.
Assay [2] relates to Mycobacterium avium 330/88. Briefly: Antimycobacterial MIC micromethod. It counts as cell-based.
The subject of assay [3] is Mycobacterium kansasii 235/80. Briefly: Antimycobacterial MIC micromethod. Conditions: read-out: MIC M. kansasii 235/80. It counts as cell-based.
Assay [4] concerns M. kansasii 6509/96 (clinically isolated strain). Briefly: Antimycobacterial MIC micromethod. Conditions: Mycobacterium kansasii, read-out: MIC M. kansasii 6509/96. The format is cell-based.
A further assay relates to HepG2 cells. Briefly: Cytotoxicity evaluation (CellTiter 96 MTS). As to conditions: Homo sapiens, HepG2; 24 h, cytotoxicity; read-out: IC50 HepG2. The format is cell-based, human. In outline:
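Human HepG2 cells (passages 21–24) seeded 1 × 10^4/well, treated next day with 0.01–20 µM compound (4-(trifluoromethyl)benzoic acid 10–4,000 µM), triplicates, 24 h at 37 °C. MTS reduction read at 490 nm after 2 h; IC50 = concentration cutting viability to 50% of control.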

The test system of assay [5] is Mycobacterium tuberculosis, M. avium and M. kansasii. Briefly: Antimycobacterial MIC, summary over all mycobacterial strains. The format is cell-based. Conditions: at 1,000 µmol/L; mycobacteria other than M. kansasii.
In the next assay the test system is M. kansasii. The assay can be described thus: Antimycobacterial MIC, summary for M. kansasii. It counts as cell-based. As to conditions: Mycobacterium kansasii, both strains; read-out: MICs towards M. kansasii.
The test system of assay [6] is eight Gram-positive and Gram-negative strains. Briefly: Antibacterial microdilution, summary over eight strains. It counts as cell-based. As to conditions: read-out: MIC, antibacterial action. The protocol:
The in vitro antibacterial activity was assayed against eight Gram-positive and Gram-negative strains: Staphylococcus aureus CCM 4516/08, methicillin-resistant Staphylococcus aureus H 5996/08 (MRSA), Staphylococcus epidermidis H 6966/08, Enterococcus sp. J 14365/08; Escherichia coli CCM 4517, Klebsiella pneumoniae D 11750/08, ESBL-positive Klebsiella pneumoniae J 14368/08, and Pseudomonas aeruginosa CCM 1961.
The microdilution broth method modified according to standard M07-A07 in Mueller-Hinton broth (HiMedia Laboratories, Mumbai, India) adjusted to pH 7.4 (±0.2) was used. The tested compounds were dissolved in DMSO to the final concentrations ranging from […]. Benzylpenicillin (penicillin G) was used as a comparative drug. Bacterial inoculum in sterile water was prepared to match 0.5 McFarland scale ([…]). The minimum inhibitory concentrations were assayed as 90% (IC90) or higher reduction of growth when compared to the control. The determination of results was performed visually and spectrophotometrically (at 540 nm). The values of MICs were determined after 24 and 48 h of incubation in the darkness at 35 °C (±0.1) in a humid atmosphere.

A word on the IC50: it is the concentration that gives 50% inhibition. As to `O=C(O)c1ccc(C(F)(F)F)cc1` [CF3-BA, 4-(trifluoromethyl)benzoic acid, reference compound], the MIC is over 1000 µM in assay [1] (336 h, 14 d); over 1000 µM in assay [1] (504 h, 21 d); over 1000 µM in assay [2] (330/88, 336 h, 14 d); over 1000 µM in assay [2] (330/88, 504 h, 21 d); 1000 µM (≈ 190 µg/mL) in assay [3] (235/80, 168 h, 7 d); over 1000 µM in assay [3] (235/80, 336 h, 14 d). Further, the MIC in assay [3] (235/80, 504 h, 21 d) is over 1000 µM; in assay [4] (168 h), 250 µM (≈ 47.5 µg/mL); in assay [4] (336 h, 14 d) it was 1000 µM (≈ 190 µg/mL); in assay [4] (504 h, 21 d) it was 1000 µM (≈ 190 µg/mL); in the assay with M. kansasii it was at least 250 µM; in assay [6], over 500 µM. Moreover, the IC50 in the assay on HepG2 cells is 564 µM. Besides, in assay [5], the “susceptibility of other mycobacteria” value is reported as “completely insusceptible”.

(Values after PMC6270420, “Antibacterial Activity of Salicylanilide 4-(Trifluoromethyl)benzoates” (Molecules, 2013).)
